Assay results: patent publication US20070087346A1, “Orthogonal gene switches” (priority 2003, published 2007)
Numbering of substitutions follows the chain as printed. Where a name gives a salt, the structure may show the parent alone. Read-outs that look alike come from different tables or passages of the source.

Key:
GST-ERα wt-LBD = molecular target: T1, GST-ERα wt-LBD (Homo sapiens, UniProt P03372); assay: competitive radiometric 3[H]E2 displacement binding assay, wt LBD
T1 construct: made in house; host or cells: E. coli BL21 (CodonPlus DE3-RIL)
T1 sequence (P03372 303-595): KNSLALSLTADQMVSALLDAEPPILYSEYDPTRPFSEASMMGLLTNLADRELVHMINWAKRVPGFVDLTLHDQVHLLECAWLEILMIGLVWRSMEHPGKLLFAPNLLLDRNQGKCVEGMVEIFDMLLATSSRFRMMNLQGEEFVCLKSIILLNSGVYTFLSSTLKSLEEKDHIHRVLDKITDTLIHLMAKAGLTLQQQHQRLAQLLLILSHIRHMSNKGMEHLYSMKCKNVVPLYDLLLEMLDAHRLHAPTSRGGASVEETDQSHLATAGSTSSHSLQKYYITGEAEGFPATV
Experimental: Microplates (Basic Flashplates, NEN) wells were coated for 12 hrs at 4° C. with 100 μl of PBS containing anti-GST antibodies (Amersham) at a concentration of 5 μg/ml. After washing three times with 200 μl of PBS, the background was reduced by saturating with 200 μl of PBS containing 1% BSA for 3 hrs at 4° C. Wells were then washed three times with 200 μl of lysis buffer containing 0.1 M NaCl and 0.2% n-Dodecyl BD-maltoside (assay buffer).
Suitable amounts of crude E. coli supernatants containing the GST-ER LBD proteins (2-10 μl) or of purified polypeptides (8 nM) were bound to the anti-GST antibody-coated wells for 1 hr at 23° C. in 200 μl of the assay buffer with constant agitation. After three more washes with 200 μl of the same buffer, the ligand-binding reaction was set up in 195 μl of assay buffer containing 2 nM-10 nM 3[H]E2 and 5 μl of DMSO or of suitable dilutions of the test compounds in DMSO. Incubation was for 2 hrs at 23° C. with constant shaking, followed by SPA radioactivity measurement using a microplate scintillation and luminescence counter (Top Count NXT, Packard). IC50 values were obtained by multiparameter logistic fitting of the experimental data with the aid of a Kaleidagraph software.

hERα = molecular target: T2, hERα (Homo sapiens, UniProt P03372); assay: binding to full-length hERα
T2 construct: relative to the wt LBD and to both α and β full-length ER
T2 sequence (P03372 1-595): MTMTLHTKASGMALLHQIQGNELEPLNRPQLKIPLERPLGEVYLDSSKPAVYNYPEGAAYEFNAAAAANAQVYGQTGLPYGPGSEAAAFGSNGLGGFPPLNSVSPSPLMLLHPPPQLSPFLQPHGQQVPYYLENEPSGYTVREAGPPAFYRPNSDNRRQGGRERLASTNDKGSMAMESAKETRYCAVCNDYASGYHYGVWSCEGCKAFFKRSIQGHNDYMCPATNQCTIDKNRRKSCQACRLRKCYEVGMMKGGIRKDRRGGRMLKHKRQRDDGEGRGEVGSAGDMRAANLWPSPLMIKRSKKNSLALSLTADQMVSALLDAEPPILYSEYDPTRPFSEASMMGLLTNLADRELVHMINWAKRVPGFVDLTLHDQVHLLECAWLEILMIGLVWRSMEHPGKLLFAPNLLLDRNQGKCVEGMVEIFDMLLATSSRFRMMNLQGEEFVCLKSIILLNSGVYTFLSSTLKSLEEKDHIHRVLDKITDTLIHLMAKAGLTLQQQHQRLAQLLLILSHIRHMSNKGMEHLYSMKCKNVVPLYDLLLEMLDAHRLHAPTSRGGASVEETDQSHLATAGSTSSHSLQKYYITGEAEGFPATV

hERβ = hERβ (Homo sapiens, UniProt Q92731); assay: binding to full-length hERβ; settings: full-length receptor
Sequence of hERβ (Q92731 whole entry, the tested form may be a part): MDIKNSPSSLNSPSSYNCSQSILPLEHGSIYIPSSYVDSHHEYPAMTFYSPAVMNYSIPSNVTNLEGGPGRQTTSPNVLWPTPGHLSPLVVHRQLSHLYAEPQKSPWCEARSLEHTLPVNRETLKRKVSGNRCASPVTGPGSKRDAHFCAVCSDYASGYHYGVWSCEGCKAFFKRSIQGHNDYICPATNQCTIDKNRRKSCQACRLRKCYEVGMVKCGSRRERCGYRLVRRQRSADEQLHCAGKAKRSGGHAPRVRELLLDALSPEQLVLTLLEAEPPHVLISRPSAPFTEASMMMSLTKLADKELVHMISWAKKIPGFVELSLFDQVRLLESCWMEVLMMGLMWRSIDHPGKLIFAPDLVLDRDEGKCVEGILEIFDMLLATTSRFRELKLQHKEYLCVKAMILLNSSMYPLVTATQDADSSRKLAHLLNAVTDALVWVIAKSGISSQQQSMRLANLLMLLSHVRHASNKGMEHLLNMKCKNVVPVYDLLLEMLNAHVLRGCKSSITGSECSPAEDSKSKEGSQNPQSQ

[1] = tested on: MG-LBD variant with Gly521 substituted with Val, Leu, Met, or Arg; assay: β-Galactosidase transcription assay in yeast, Gly521 substitutions in MG-LBD; format: cell-based, human; settings: data not shown
HEA-1 = molecular target: T3, HEA-1 (Homo sapiens, UniProt P03372, G521R); settings: cell culture; Roscilli et al., 2002; cited from earlier work
T3 sequence (P03372 303-595 G521R): T1 sequence (P03372 303-595) with G219R

[2] = 3[H]E2 displacement, read-out: GST-ERα wt-LBD IC50
[3] = full-length receptor, read-out: hERα IC50

Row | Molecule | IC50 (GST-ERα wt-LBD; [2]) [nM] | IC50 (hERβ) [nM] | IC50 (hERα; [3]) [nM] | further results
1 | CN(C)CCOc1ccc(C2=C3c4ccc(O)cc4CC3(Cc3ccccc3)CCC2=O)cc1 (stereo not shown) [CMP12, 9a-benzyl-4-{4-[2-(di-methylamino)ethoxy]phe-nyl}-7-hydroxy-1,2,9,9a-tetra-hydro-3H-fluor-en-3-one] | 4170 |  |  | 
2 | CC1=C2c3ccc(O)cc3CC2(Cc2ccccc2)CCC1=O (stereo not shown) [CMP4, 9a-benzyl-7-hy-droxy-4-methyl-1,2,9,9a-tetra-hydro-3H-fluor-en-3-one] | 2320 | 506 |  | IC50 (hERα): 1470 nM; response (trans-activation in yeast) [1]: dramatic loss of response
3 | CC1=C2c3ccc(O)cc3CC2(Cc2ccc(Cl)cc2)CCC1=O (stereo not shown) [CMP17, 9a-(4-chlorobenzyl)-7-hy-droxy-4-methyl-1,2,9,9a-tetra-hydro-3%{H}-fluor-en-3-one] | 6830 |  |  | 
4 | O=C1CCC2(Cc3ccccc3)Cc3cc(O)ccc3C2=C1c1ccncc1 (stereo not shown) [CMP15, 9a-benzyl-7-hydroxy-4-py-ridin-4-yl-1,2,9,9a-tetra-hydro-3H-fluor-en-3-one] | 725 | 558 | 1180 | 
5 | O=C1CCC2(Cc3ccccc3)Cc3c(ccc4[nH]ncc34)C2=C1c1ccc(OCCN2CCCCC2)cc1 (stereo not shown) [CMP9, 9a-benzyl-6-{4-[2-(1-pipe-ridinyl)eth-oxy]phenyl}-8,9,9a,10-tetra-hydroindeno[2,1-e]in-dazol-7(3H)-one hydrotrifluoroacetae salt] |  | 125 |  | 
6 | O=C1CCC2(Cc3ccccc3)Cc3cc(O)ccc3C2=C1c1ccc(OCCN2CCCCC2)cc1 (stereo not shown) [CMP10, 9a-benzyl-7-hy-droxy-4-{4-[2-(1-pipe-ridinyl)-eth-oxy]phenyl}-1,2,9,9a-tetra-hydro-3H-fluor-en-3-one] |  | 184 |  | IC50 (GST-ERα wt-LBD): 1270 nM; IC50 (hERα): 375 nM
7 | 4 hydroxytamoxifen [4-OH Tam] |  |  |  | drug-dependent transgene induction (HEA-1): up to hundred-fold
8 | CCCCC1=C2c3ccc(O)cc3CC2(Cc2ccccc2)CCC1=O (stereo not shown) [CMP7, 9a-benzyl-4-butyl-7-hy-droxy-1,2,9,9a-tetra-hydro-3H-fluor-en-3-one] | 1310 | 307 | 259 | 
9 | O=C1CCC2(Cc3ccccc3)Cc3cc(O)ccc3C2=C1c1ccccn1 (stereo not shown) [CMP13, 9a-benzyl-7-hydroxy-4-py-ridin-2-yl-1,2,9,9a-tetra-hydro-3H-fluor-en-3-one] | > 3600 |  |  | 
10 | O=C1CCC2(Cc3ccccc3)Cc3cc(O)ccc3C2=C1c1ccc(OCCN2CCOCC2)cc1 (stereo not shown) [CMP11, 9a-benzyl-7-hy-droxy-4-{4-[2-(4-mor-pholinyl)-eth-oxy]phenyl}-1,2,9,9a-tetra-hydro-3H-fluor-en-3-one] |  |  |  | IC50 (GST-ERα wt-LBD): 2310 nM
11 | CC1=C2c3cc(Br)c(O)c(Br)c3CC2(Cc2ccccc2)CCC1=O (stereo not shown) [CMP24, 9a-benzyl-6,8-di-bromo-7-hydroxy-4-meth-yl-1,2,9,9a-tetra-hydro-3%{H}-fluor-en-3-one] | > 180000 |  |  | 
12 | O=C1CCC2(Cc3ccccc3)Cc3cc(O)ccc3C2=C1c1cccnc1 (stereo not shown) [CMP14, 9a-benzyl-7-hydroxy-4-py-ridin-3-yl-1,2,9,9a-tetra-hydro-3H-fluor-en-3-one] | > 3600 |  |  | 
13 | O=C1CCC2(Cc3ccccc3)Cc3cc(O)ccc3C2=C1c1ccc(O)cc1 (stereo not shown) [CMP6, 9a-benzyl-7-hydroxy-4-(4-hy-droxyphenyl)-1,2,9,9a-tetra-hydro-3H-flour-en-3-one] |  | 96 |  | IC50 (GST-ERα wt-LBD): 1370 nM; IC50 (hERα): 223 nM
14 | O=C1CCC2(Cc3ccc(Cl)cc3)Cc3cc(O)ccc3C2=C1c1ccc(OCCN2CCCCC2)cc1 (stereo not shown) [CMP8, 9a-(4-chlorobenzyl)-7-hy-droxy-4-{4-[2-(1-pipe-ridinyl)-eth-oxy]phenyl}-1,2,9,9a-tetra-hydro-3H-fluor-en-3-one] | 4440 | 2230 | 1080 | 

More lines, main results first:

Row | IC50 (GST-ERα wt-LBD; [2]) [nM] | IC50 (hERβ) [nM] | IC50 (hERα; [3]) [nM] | Molecule | further results
15 |  | 4190 |  | CC1=C2c3ccc4nn[nH]c4c3CC2(Cc2ccccc2)CCC1=O (stereo not shown) [CMP30, 9a-benzyl-6-methyl-8,9,9a,10-tetra-hydrofluoreno[1,2-d][1,2,3]tri-azol-7(3H)-one] | 
16 |  | > 10000 | > 10000 | CC1=C2c3ccc4[nH]nnc4c3CC2(Cc2ccccc2C(F)(F)F)CCC1=O (stereo not shown) [CMP34, 9a-[2-(tri-fluoromethyl)benzyl]-6-meth-yl-8,9,9a,10-tetra-hydrofluoreno[1,2-d][1,2,3]tri-azol-7(3H)-one] | 
17 |  | 1070 |  | CC1=C2c3ccc4[nH]ncc4c3CC2(Cc2cccc(F)c2)CCC1=O (stereo not shown) [CMP26, 6-methyl-9a-(3-fluoro-benzyl)-8,9,9a,10-tetra-hydroindeno[2,1-e]in-dazol-7(3H)-one] | 
18 |  | 529 | 4300 | CC1=C2c3ccc4[nH]ncc4c3CC2(Cc2ccccc2F)CCC1=O (stereo not shown) [CMP27, 6-methyl-9a-(2-fluoro-benzyl)-8,9,9a,10-tetra-hydroindeno[2,1-e]in-dazol-7(3H)-one] | 
19 |  | 997 |  | CC1=C2c3ccc4[nH]ncc4c3CC2(Cc2ccc(F)cc2)CCC1=O (stereo not shown) [CMP25, 6-methyl-9a-(4-fluoro-benzyl)-8,9,9a,10-tetra-hydroindeno[2,1-e]in-dazol-7(3H)-one] | 
20 | > 10000 | 1250 | > 10000 | CC1=C2c3ccc4[nH]ncc4c3CC2(Cc2ccccc2)CCC1=O (stereo not shown) [CMP5, 6-methyl-9a-ben-zyl-8,9,9a,10-tetra-hydroindeno[2,1-e]in-dazol-7(3H)-one] | 
